Where a name gives a salt, the structure may show the parent alone.
Columns and labels:
[1] = tested on: pyruvate dehydrogenase enzyme; assay: Proportion of active pyruvate dehydrogenase (PDHa/PDHt) in hearts of fat-fed rats after treatment in vivo; parameters: species or system rat; conditions: heart; for PDHa/PDHt Ratio, Compound: 0.6 millimoles/kg.
Procedure: The total amount of the enzyme present (PDHt) and the amount which is present in the active form (PDHa) are assessed by a method similar to that described by Taylor et al., Jour. […] The fat-feeding process is found to depress the ratio PDHa/PDHt from a normal value of about 0.7 to a value in the range from 0.05 to 0.2. Treatment of fat-fed rats with L(+)-2-(4-hydroxyphenyl)glycine, either parenterally or orally, increases this ratio in a dose-dependent manner, the threshold doses for this effect being 0.05 millimole/kg. by intravenous injection and in the range 0.1 to 0.2 millimole/kg. by subcutaneous injection or by oral administration. The ratio is increased to a value in the range 0.8-1.0 (i.e., above that for rats on normal diet) by doses of 0.6 millimole/kg. and above.
The increase in the PDHa/PDHt ratio effected by other compounds of formula (I) at a dose level of 0.6 millimoles/kg. is shown in the following Table: […]

[2] = tested on: pyruvate oxidation by diaphragm tissue from fat-fed rats; assay: Pyruvate oxidation by diaphragm tissue from fat-fed rats (14C-pyruvate into CO2, in vitro); assay type: cell-based, rat; conditions: for activation at 500 µM: concentration of 0.5 mM, read-out: % Stimulation (of pyruvate oxidation)
Procedure: The compounds of formula (I) were tested for their ability to increase pyruvate oxidation as follows:
Diaphragm tissue is obtained from rats fed on a high fat diet similar to "Diet B" described by Zaragoza and Felber, Horm, Metab. Res., 2, 323 (1970). Pyruvate oxidation by such tissue is assessed by measurement of the rate of incorporation of carbon-14 from carbon-14-labelled pyruvate into carbon dioxide in vitro, as described by Bringolf, Eur. Jour. Biochem., 26, 360 (1972). The rate of pyruvate oxidation is depressed by 50-75% compared with that by diaphragm tissue from rats fed on a normal diet. […] The threshold concentration for such stimulation is about 0.25 millimolar and maximum stimulation of 170% is achieved at concentrations of 4 millimolar and above.

[3] = tested on: glucose oxidation by isolated hearts from starved rats; assay: Glucose oxidation by isolated perfused hearts from starved rats (14C-glucose into CO2); assay type: cell-based; conditions: isolated starved-rat heart
Procedure: The rate of glucose oxidation by isolated hearts from starved rats is measured in a recirculating oxygenated perfusion system, by measuring the rate of incorporation of carbon-14 from carbon-14-labelled glucose into carbon dioxide using a method similar to those described by Morgan et al., Jour. […] The perfusate contains glucose, palmitate, insulin and bovine serum albumen.

[4] = tested on: heart of anesthetized beagle dogs; assay: Myocardial blood flow and metabolism in fasted, closed-chest, anesthetized, electrically paced beagle dogs; assay type: in vivo, dog
Procedure: The ability of compounds of formula (I) to reduce oxygen demand and affect the relative utilization of carbohydrate and lipid metabolites in the heart has been assessed by measuring the effect of the compounds on myocardial blood flow and metabolism in fasted, closed-chest, anesthetized beagle dogs, with cardiac catherization to enable simultaneous sampling of coronary sinus and arterial blood to be carried out. Coronary sinus blood flow is measured by the hydrogen gas clearance technique described by Aukland et al., Circulation Res., 14, 164 (1964). The heart is paced electrically at 155 beats/min. and recordings of hemodynamic parameters (blood pressure, left ventricular pressure and the first derivative of the latter) are made continuously. Control measurements of coronary blood flow are made and samples of blood taken at 40 minute intervals, both in an untreated animal and in the same animal dosed with an infusion of isoprenaline ([…].), which both stimulates cardiac contraction and increases plasma free fatty acid levels. The compound of formula (I) is then administered intravenously and measurements are made and samples taken again, 40 minutes and 90 minutes later. The blood samples from the artery and coronary sinus are analyzed for oxyhemoglobin, pyruvate and free fatty acid (FFA) content, differences between those of the arterial and coronary sinus blood, when multiplied by coronary blood flow, being a measure of oxygen consumption, pyruvate uptake and FFA uptake by the myocardium respectively.

[5] = tested on: rats in which diabetes has been induced by treatment with streptozotocin; assay: Blood glucose levels in streptozotocin-diabetic rats; assay type: in vivo, rat
Procedure: The ability of compounds of formula (I) to decrease blood glucose levels has been assessed by measuring their effect on blood glucose levels in rats in which diabetes has been induced by treatment with streptozotocin (85 mg/kg.). Four days after such treatment, a number of rats are given 1 millimole/kg of the compound by intraperitoneal injection and a similar number are given placebo. The doses are repeated after a further 24 hours and 48 hours. Blood samples are taken from a tail vein immediately before each dosage (which is 2 hours after removal of the animals from food) and 1, 2 and 3 hours after the third dose.

[6] = 0.02 to 0.1 millimole/kg. intravenously

NC(C(=O)O)c1ccc(O)cc1 (racemic) [DL (racemic)-2-(4-hydroxyphenyl)glycine]
effect on PDHa/PDHt ratio relative to the L(+)-isomer ([1]; same dose levels): only half, or less than half, the effect of the L(+)-isomer | effect on pyruvate oxidation relative to the L(+)-isomer [2]: approximately half that of the L(+)-isomer

NC(C(=O)[O-])c1ccc(O)cc1.[Na+] (racemic) [DL-2-(4-hydroxyphenyl)glycine, sodium salt]
effect on rate of glucose oxidation (predicted, 'will be') [3]: significantly increased

CC(C)CCOC(=O)[C@@H](N)c1ccc(O)cc1 [3-Methylbutyl L(+)-2-(4-hydroxyphenyl)glycinate]
PDHa/PDHt Ratio, Compound ([1]; s.c. (subcutaneous)): 0.51 | activation at 500 µM ([2]; Rattus norvegicus): 32% | effects on myocardial pyruvate uptake, blood flow, oxygen consumption and FFA uptake (predicted, 'will be found') [4]: effects similar to L(+)-2-(4-hydroxyphenyl)glycine

Br.COc1ccc([C@H](N)C(=O)OCCC(C)C)cc1 [3-methylbutyl L(+)-2-(4-methoxyphenyl)glycinate hydrobromide]
effect on PDHa/PDHt ratio (predicted, 'will be') [1]: significantly increased

N[C@@H](C(=O)O)c1ccc(O)cc1 [D(-)-2-(4-hydroxyphenyl)glycine, reference compound]
effect on PDHa/PDHt ratio ([1]; dose levels up to 1.2 millimole/kg.): very little effect | effect on rate of glucose oxidation ([3]; 2 millimolar in perfusate): no significant effect | effect on pyruvate oxidation ([2]; concentrations up to 4 mM): no significant effect

CC(C)OC(=O)[C@@H](N)c1ccc(O)cc1 [Isopropyl L(+)-2-(4-hydroxyphenyl)glycinate]
activation at 500 µM ([2]; Rattus norvegicus): 34%

NC(=O)[C@@H](N)c1ccc(O)cc1 [L(+)-2-(4-hydroxyphenyl)glycinamide]
PDHa/PDHt Ratio, Compound ([1]; p.o. (oral)): 0.91 | PDHa/PDHt Ratio, Compound ([1]; s.c. (subcutaneous)): 0.93 | effect on rate of glucose oxidation (predicted, 'will be') [3]: significantly increased | activation at 500 µM ([2]; Rattus norvegicus): 51% | effects on myocardial pyruvate uptake, blood flow, oxygen consumption and FFA uptake (predicted, 'will be found') [4]: effects similar to L(+)-2-(4-hydroxyphenyl)glycine

N[C@H](C(=O)O)c1ccc(O)cc1 [L(+)-2-(4-hydroxyphenyl)glycine]
blood glucose level after 2 days of treatment (immediately before the third dose) ([5]; 1 millimole/kg intraperitoneal daily, declined from 378± 8, placebo 383± 10, averages for 8 animals): 356± 4 mg/100 ml. | blood glucose level 2 hours after the third dose (minimum value) ([5]; 1 millimole/kg intraperitoneal, placebo 385± 7, averages for 8 animals): 313± 7 mg/100 ml. | PDHa/PDHt ratio ([1]; doses of 0.6 millimole/kg. and above, fat-fed untreated 0.05 to 0.2, normal diet about 0.7): 0.8-1.0 | threshold dose for increase of PDHa/PDHt ratio ([1]; intravenous injection): 0.05 millimole/kg. | rate of glucose oxidation ([3]; 2 millimolar in perfusate, normal rate 1.27+ 0.32, mean of 9 observations): 4.77 µmol/h | Emax ([2]; Rattus norvegicus, at concentrations of 4 millimolar and above, read-out: maximum stimulation of pyruvate oxidation): 170% | minimal effective concentration ([2]; Rattus norvegicus, in vitro, read-out: threshold concentration for stimulation of pyruvate oxidation): ~250 µM | effect on hemodynamic parameters (blood pressure, left ventricular pressure and its first derivative) [4, 6]: no effect | effect on myocardial FFA uptake [4, 6]: generally decreased | increase of myocardial blood flow [4, 6]: up to 150% | period of increased myocardial pyruvate uptake after dosing [4, 6]: at least 90 minutes | decrease of myocardial oxygen consumption ([4]; 0.02 to 0.1 millimole/kg. intravenously, in the presence of isoprenaline): about 20% | increase of myocardial pyruvate uptake ([4]; 0.02 to 0.1 millimole/kg. intravenously, presence and absence of isoprenaline): at least 2 fold

COc1ccc([C@H](N)C(N)=O)cc1 [L(+)-2-(4-methoxyphenyl)glycinamide]
effect on PDHa/PDHt ratio (predicted, 'will be') [1]: significantly increased | effect on pyruvate oxidation (predicted, 'will be found') [2]: stimulate pyruvate oxidation

COc1ccc([C@H](N)C(=O)O)cc1 [L(+)-2-(4-methoxyphenyl)glycine, calcium salt]
effects on myocardial pyruvate uptake, blood flow, oxygen consumption and FFA uptake (predicted, 'will be found') [4]: effects similar to L(+)-2-(4-hydroxyphenyl)glycine

COc1ccc([C@H](N)C(=O)[O-])cc1.[K+] [L(+)-2-(4-methoxyphenyl)glycine, potassium salt]
effect on PDHa/PDHt ratio (predicted, 'will be') [1]: significantly increased

COc1ccc([C@H](N)C(=O)O)cc1 [L(+)-2-(4-methoxyphenyl)glycine]
effect on rate of glucose oxidation (predicted, 'will be') [3]: significantly increased | activation at 500 µM ([2]; Rattus norvegicus): 79%

COC(=O)[C@@H](N)c1ccc(O)cc1 [Methyl L(+)-2-(4-hydroxyphenyl)glycinate]
PDHa/PDHt Ratio, Compound ([1]; p.o. (oral)): 0.42 | PDHa/PDHt Ratio, Compound ([1]; s.c. (subcutaneous)): 0.69 | activation at 500 µM ([2]; Rattus norvegicus): 89%

CCOC(=O)[C@@H](N)c1ccc(OC)cc1 [ethyl L(+)-2-(4-methoxyphenyl)glycinate]
effect on pyruvate oxidation (predicted, 'will be found') [2]: stimulate pyruvate oxidation

COC(=O)[C@@H](N)c1ccc(O)cc1.Cl [methyl L(+)-2-(4-hydroxyphenyl)glycinate hydrochloride]
effects on myocardial pyruvate uptake, blood flow, oxygen consumption and FFA uptake (predicted, 'will be found') [4]: effects similar to L(+)-2-(4-hydroxyphenyl)glycine

COC(=O)[C@@H](N)c1ccc(OC)cc1 [methyl L(+)-2-(4-methoxyphenyl)glycinate gluconate]
effect on PDHa/PDHt ratio (predicted, 'will be') [1]: significantly increased

CCCCOC(=O)[C@@H](N)c1ccc(OC)cc1 [n-butyl L(+)-2-(4-methoxyphenyl)glycinate]
effect on pyruvate oxidation (predicted, 'will be found') [2]: stimulate pyruvate oxidation

CCCOC(=O)[C@@H](N)c1ccc(O)cc1.Cl [n-propyl L(+)-2-(4-hydroxyphenyl)glycinate hydrochloride]
effect on rate of glucose oxidation (predicted, 'will be') [3]: significantly increased

From patent publication US4185116A, “L- and DL- Phenylglycines to treat diseases or conditions attributable to reduced carbohydrate metabolism” (priority 1976, dated 1980)
